Measurements published in patent US20210252120A1, “IMMUNOTHERAPY FOR CANCER” (SOTIO A.S., priority 2016, published 2021).

Columns and labels:
NK cells (CD3^−CD56^+) = assay: Proliferation of NK cells (Ki67+ staining, flow cytometry) in tumor cell suspensions incubated with IL-15; type: cell-based, human
Method: (§1) Tumoral (Tu) and non-tumoral tissue (NTu) were obtained from 82 NSCLC patients undergoing neoadjuvant surgery. The characteristics of NSCLC patients are depicted in Table 2. Tissue samples obtained at the day of surgery were chopped into small pieces and incubated with agitation in RMPI 1640 medium (Gibco) with 100 ng/ml DNAse I and 20 ng/ml Collagenase D (both from Roche) for 45 minutes at 37° C. The cell suspension was then passed through the 100 μm strainer into 50 ml falcon tubes to obtain single cell suspensions. The infiltrated immune cell populations were analyzed by flow cytometry immediately after staining with specific antibodies for 30 min at 4° C. as described below. For further stimulation lymphocytes were counted and seeded into 96-well plates at the concentration of 1×10^6 lymphocytes/nil in RPMI-1640 medium supplemented with 10% heat-inactivated fetal bovine serum (PAA), 2 mM GlutaMAX I CTS (Gibco) and 100 U/ml penicillin+[…] streptomycin (Gibco). Cells were stimulated with 50 ng/ml PMA and 10 ng/ml ionomycin (both from Sigma-Aldrich) for 1 h at 37° C. before Brefeldin A (BioLegend, 1000×) was added for 3 h to detect intracellular IFN-γ in CD8^+ and CD4^+ T cells. In some experiments recombinant IL-15 (Peprotech, 13 ng/ml) was added to the cell culture and the proliferating CD8^+ T cells and NK cells were detected by flow cytometry after 3 and 7 days of incubation at 37° C. Cell viability was detected by DAPI (Thermo Fisher Scientific) or by LIVE/DEAD® Fixable Aqua Dead Cell Stain Kit 405 nm excitation (Invitrogen).
(§2) Cells were stained extracellularly with the mixture of appropriate antibody in PBS for 30 min at 4° C. For intracellular staining of IFN-γ, Foxp3, CD3 and Ki-67 the cells were fixed for 30 min using Fixation Buffer (eBioscience), permeabilized with Permeabilization Buffer (eBioscience) and stained intracellularly for 30 min at 4° C. Cells were washed with PBS and analyzed by LSRFortessa (BD Biosciences). Data were analyzed with FlowJo software (Tree Star). Flow cytometry data may be expressed as mean fluorescent intensity (MFI).
(§3) As PMA and ionomycin represent strong unspecific stimulation of immune cells, IL-15 was used to activate predominantly NK cells and CD8^+ T cells, playing a major role in antitumor immunity. Tumor cell suspensions were incubated alone or with IL-15 for 7 days. The proliferation of CD8^+ T cells and NK cells was analyzed on Day 0, 3 and 7 by Ki67^+ staining followed by flow cytometry. Whereas 68% and 79% of T cells and NK cells, respectively, proliferated on Day 3 of incubation in AC tumors, only 23% and 8% of T cells and NK cells, respectively, proliferated in SCC tumors, confirming a higher immunosuppressive environment in SCC than AC tumors (see Table 6).

CD8^+ T cells = assay: Proliferation of CD8+ T cells (Ki67+ staining, flow cytometry) in tumor cell suspensions incubated with IL-15; type: cell-based, human
Method: as §1, §2, §3

[1] = AC tumor cell suspension, Day 3, +IL-15
[2] = AC tumor cell suspension, Day 7, +IL-15
[3] = SCC tumor cell suspension, Day 3, +IL-15
[4] = SCC tumor cell suspension, Day 7, +IL-15

Q: “IL-15: recombinant IL-15 (Peprotech, 13 ng/ml) added to cell culture to activate predominantly NK cells and CD8+ T cells” was tested. Which “Ki67^+ cells from CD3^−CD56^+ T cells (NK cells)” value (“Ki67^+ cells … (NK cells)” for short) (NK cells (CD3^−CD56^+); [1]) did it give?
A: Its value is 79%.

Q: What about the “Ki67^+ cells … (NK cells)” value (NK cells (CD3^−CD56^+); [2]) of the same substance?
A: The value was 50%.

Q: And the “Ki67^+ cells … (NK cells)” value (NK cells (CD3^−CD56^+); [3])?
A: The value was 8%.

Q: And the “Ki67^+ cells … (NK cells)” value (NK cells (CD3^−CD56^+); [4])?
A: The value was 40%.

Q: And the “Ki67^+ cells from CD8^+ T cells” value (CD8^+ T cells; [1])?
A: The value was 68%.

Q: And the “Ki67^+ cells from CD8^+ T cells” value (CD8^+ T cells; [2])?
A: The value was 62%.

Q: And the “Ki67^+ cells from CD8^+ T cells” value (CD8^+ T cells; [3])?
A: The value was 23%.

Q: And the “Ki67^+ cells from CD8^+ T cells” value (CD8^+ T cells; [4])?
A: The value was 45%.
